These results are taken from US20240049994A1, “ONE-TOUCH FINGERTIP SWEAT SENSOR AND PERSONALIZED DATA PROCESSING FOR RELIABLE PREDICTION OF BLOOD BIOMARKER CONCENTRATIONS” (THE REGENTS OF THE UNIVERSITY OF CALIFORNIA, priority 2021, published 2024).

Data set [1] deals with tyrosinase enzyme. Nature of the data set: Selectivity of tyrosinase-modified L-Dopa sensor against C-Dopa. In kind it is biochemical. An excerpt:
L-Dopa detection is achieved through coupling the tyrosinase enzyme-catalyzed L-Dopa oxidation (catecholase activity) and the subsequent electrochemical reduction of the corresponding quinone product, dopaquinone, at low potentials (FIG. 6A). The formed reaction cycle not only enhances the sensitivity through amplification of the resulting current signal but also prevents electrode fouling by inhibiting the spontaneous polymerization reactions of the unstable quinone molecules. Tyrosinase enzyme is simply immobilized on the surface of screen-printed carbon electrodes, followed by crosslinking with glutaraldehyde to prevent leaching of the enzyme (FIG. 6A). To establish the optimal potential for the L-Dopaquinone reduction, the amperometric signals obtained at various potentials, ranging from −0.1 to −0.4 V (vs. internal pseudo-reference Ag/AgCl), are compared upon addition of 10 μM L-Dopa. […] Thus, optimal potential of −0.3 V is chosen and used for subsequent in-vitro and on-body experiments. […] The reproducibility of the L-Dopa sensor is evaluated by measuring 10 μM L-Dopa concentration on six different electrodes sensors.
The performance of the sensor toward following the L-Dopa pharmacokinetics is characterized on healthy patients following the administration of L-Dopa/C-Dopa (100:25 mg) pills which are common oral medication for PD patients. […]

Data set [2] can be described thus: Touch-based fingertip sweat L-Dopa monitoring after L-Dopa/C-Dopa pill intake. The class given is in vivo, human. The note with it: oral L-Dopa/C-Dopa (100:25 mg) pill. An excerpt:
The disclosed technology can be implemented in some embodiments to provide an individualized therapeutic drug monitoring for PD patients, centered on dynamic non-invasive tracking pharmacokinetic profiles of L-Dopa levels in the secreted sweat upon intake of standard pill formulations. Sweat is a non-invasively retrievable biofluid containing rich information of trace-level, health-related biochemical markers. Wearable sweat sensors have shown enormous potential toward monitoring of physiological heath status (e.g., hydration), disease diagnosis and management (e.g., diabetes and gout), and therapeutic drug monitoring (e.g., pain management). However, the presence of skin as a mechanical barrier prevents an uninterrupted access to this information-rich biofluid, and thus a triggering system (i.e., physical exercise, thermal stimulation, oriontophoresis) is necessary to provide continuous access to sweat sample. […] Taking advantage of the high density of eccrine sweat glands (˜400 glands cm^2) and the consequent generation of high sweat rates, finger touch-based biosensors have recently been reported for the detection of key sweat biomarkers (e.g., glucose, vitamin C, and cortisol). Leveraging such natural thermoregulatory sweat sample, a finger-touch L-Dopa biosensor based on some embodiments of the disclosed technology can continuously monitor the dynamic profile of sweat L-Dopa upon intake of standard anti-Parkinsonian medication including L-Dopa-carbidopa (100:25 mg) (FIG. 5A(a)). […]
To gain further insight into the personalized body responses upon medication intake, the performance of the finger touch biosensor is evaluated on three different individuals while taking the same medication under identically kept conditions (FIG. 7 (a)-(c)). […]

Data set [3] in a line: Pharmacokinetic correlation of fingertip sweat and capillary blood L-Dopa profiles. In kind it is in vivo, human. Conditions: healthy subjects, after L-Dopa/C-Dopa pill, measured every 10 min. An excerpt: While the blood plasma is the ‘gold standard’ matrix for therapeutic monitoring of L-Dopa, this analysis method relies on LC-MS centralized instruments. To further confirm the reliability of the developed protocol based on touch-based sweat L-Dopa detection, the feasibility of data validation between sweat and blood samples is investigated. Two subjects performed fingertip sweat sensing in parallel to the electrochemical measurements of the finger pricked capillary blood samples, using the enzymatic L-Dopa sensor. As shown in FIG. 62 (A)-(B), the sweat sensor is able to probe and detect successfully L-Dopa fluctuations in microliter blood samples similar to the fingertip natural sweat sample. Similar temporal profiles are observed for blood and sweat experiments, with ˜10 min lag time. […] Additionally, control experiments are also carried out without pill intake (FIG. 62 (C)) and using non-enzymatic electrode (FIG. 62 (D)). In both control experiments, the current signal remained small and unchanged, which indicates the signal specificity of the fingertip touch-based sweat sensing procedure.

Regarding `C[C@@](Cc1ccc(O)c(O)c1)(NN)C(=O)O` [C-Dopa, carbidopa], the “current relative to L-Dopa” value in data set [1] (a quarter of the L-Dopa concentration (4:1 ratio as in the pill)) is recorded as roughly 6%. For the same molecule, in data set [1] (same concentration as L-Dopa, amperometry at -0.3 V), the “overall response relative to L-Dopa” value is roughly 20%.
`N[C@@H](Cc1ccc(O)c(O)c1)C(=O)O` [L-Dopa, Levodopa]: in data set [2] (healthy subject), the “time at which L-Dopa current signal starts to increase after pill intake” value was determined as 10 min and the “time at which sweat L-Dopa signal decreases back to background level after pill intake” value was “one hour”. Also, in data set [2] (healthy subjects, measured every 10 min), the “time of peak maximum of sweat L-Dopa signal after pill intake” value turned out to be 30 min. Further, the “lag time between sweat and capillary blood L-Dopa temporal profiles” value in data set [3] is on record as roughly 10 min.
